# Test results as given in PMC11589101, “Profiling the endocrine-disrupting properties of triazines, triazoles, and short-chain PFAS” (Toxicological Sciences, 2024).
# Read-outs that look alike come from different tables or passages of the source.
# How the values were obtained:
# [1] = system: steroidogenesis in H295R cells; type: cell-based, human; settings: for effect on steroid hormone levels compared with vehicle-treated controls: highest noncytotoxic exposure concentration
# Method: All experiments were performed using cells in passages 5 to 10. First, the highest noncytotoxic concentration (<10% decrease in viability) was determined for each compound with MTT assays. Next, the levels of 13 steroid hormones were determined in the medium after exposure of the H295R cells to the highest noncytotoxic concentration using LC-MS/MS. These concentrations were tested in triplicate (n = 3) in 3 independent experiments (N = 3), and all 9 samples were measured in LC-MS/MS. […] These dilution series were tested in 3 independent experiments (N = 3), with triplicate exposures in each of these experiments (n = 3). Supernatants of the triplicate exposures per experiment were pooled after the 48 h of exposure and the 3 pooled samples were measured with LC-MS/MS. This was done to keep the number of LC-MS/MS measurements manageable.
# The exposure medium was prepared by diluting stock solutions 1,000× in the cell culture medium to obtain a final concentration of 0.1% of the solvent. Exposure was started by replacing cell culture medium with the exposure medium. […] On a separate quality control plate, cells were exposed to 10 μM forskolin (Sigma-Aldrich) and 1 μM prochloraz (Sigma-Aldrich) to serve as positive control for increased and decreased steroid hormone secretion, respectively. Exposure was started by replacing the culture medium in the cell culture plates with the exposure medium.
# After 48 h of exposure, the supernatant medium from each well was transferred to the wells of a clean 48-well plate, and that plate was stored at −80 °C for later steroid measurement. MTT assays were performed by adding 500 μl of 0.5 mg/ml MTT (3-(4,5-dimethylthiazol-2-yl)-2,5-diphenyltetrazolium bromide; Sigma-Aldrich) solution in medium to each well of the 24-well cell culture plate and incubating for 1 h at 37 °C with 5% CO2. After incubation, the MTT solution was discarded and 500 μl of DMSO was added to each well to lyse the cells and dissolve the formazan crystals. Plates were shaken at 700 rpm for 10 min and absorbance was measured at 560 nm wavelength.
# Hormones were concentrated from supernatants by solid phase extraction using Bond Elut Plexa cartridges, 30 mg sorbent, 1.8 ml (Agilent Technologies, Santa Clara, CA, United States). The cartridges were conditioned with 1 ml of 0.5% formic acid in methanol, and subsequent addition of 1 ml of 0.5% formic acid in water. A mix of 100 μl of H295R medium sample in 1 ml of 2% formic acid in water and 50 μl of isotopically labeled internal standards mix (Table S1) was loaded on the cartridges. These were then washed with 1 ml of water followed by 1 ml of water–methanol mixture (70:30, v/v). Cartridges were dried by vacuum and the hormones were eluted with 700 μl of methanol into 96-well-deep well polypropylene plates. Eluates were evaporated to dryness during approximately 2 h in a refrigerated CentriVap vacuum concentrator and reconstituted in 150 μl of water–methanol mixture (1:1, v/v). Additionally, a serial 12-point dilution series of a mix of native steroid hormones was prepared to fit a calibration curve in order to quantify steroid concentrations.
# The steroid hormones were separated prior to MS measurements on a Kinetex C18 LC Column (2.6 μm, 100 × 2.1 mm; Phenomenex, CA, United States) coupled to an Exion LC system (SCIEX, Framingham, MA, United States). The mobile phase consisted of 0.2 mM NH4F in water and pure methanol and was delivered at a flow rate of 0.6 ml/min in a gradient elution mode. The injection volume was 10 μl.
# The LC-MS/MS raw data were processed using AB Sciex OS Analyst version 1.6.2 (SCIEX, Framingham, MA, United States) to calculate fold changes by dividing the measured hormone concentrations by the hormone concentrations in the vehicle controls. The fold changes were used to fit a concentration–response curve in GraphPad Prism using the same model as in the reporter gene assays, and the ECIR1.5 was estimated for each compound.
# [2] = biological target: T1, human transthyretin (TTR) (Homo sapiens, UniProt P02766); assay: FITC-T4 TTR-binding assay, screening method; settings: screening method; read-out: IC50 TTR-binding assay, Screening Method
# Method: (§1) All incubations were performed at room temperature.
# In the screening tests, 48 μl of Tris-HCl buffer (pH 8.0) was added to each well of black low-binding 96-well plates. Two microliters of each test compound dissolved in their respective solvent was added to each well and the plate was shaken at 600 rpm for 5 min. […] Fluorescence was measured again to check for possible autofluorescence or quenching by the test compound.
# (§2) Fluorescence enhancement was determined for each well by subtracting its relative fluorescence units (RFU) before TTR addition from its RFUs after TTR addition. The resulting values were normalized to percentages of the vehicle control. A concentration–response curve was fitted through the data using the same model as in the reporter gene assays.
# [3] = biological target: T1, human transthyretin (TTR); assay: FITC-T4 TTR-binding assay, initial (original) method; settings: for IC10 competing with FITC-T4 for binding to TTR / IC50: initial method, 110 nM FITC-T4, 30 nM TTR; for IC50: read-out: IC50 competing with FITC-T4 for binding to TTR
# Method: as §1, §2
# After 15 min of incubation, fluorescence was measured and fluorescence enhancement was calculated by subtracting RFU without TTR from RFU with TTR. Further data analysis was similar to the screening assays.
structure (smiles),measurement,setting,value
CC(C)(C)[C@@H](O)[C@@H](Cc1ccc(Cl)cc1)n1cncn1 (racemic) [Paclobutrazol],increased levels of progesterone and 17α-OH-progesterone compared with vehicle-treated controls,"[1]; H295R, 48 h",up to 3.5 fold
same,effect on steroid hormone levels compared with vehicle-treated controls,[1]; 48 h,"increased levels of progesterone and decreased levels of androgens, estrogens, and corticosteroids"
"Cc1cccc2[nH]nnc12 [4-methylbenzotriazole, 4-Methylbenzotriazole]",IC50,[2],26.3 µM
same,% FITCT4 bound to TTR,[3]; 0.1 uM,96.4305%
same,% FITCT4 bound to TTR,[3]; 0.3 uM,93.5915%
same,% FITCT4 bound to TTR,[3]; 1 uM,89.9761%
same,% FITCT4 bound to TTR,[3]; 3 uM,82.6096%
same,% FITCT4 bound to TTR,[3]; 10 uM,67.1205%
same,% FITCT4 bound to TTR,[3]; 30 uM,47.648%
same,% FITCT4 bound to TTR,[3]; 100 uM,21.2593%
same,IC10 competing with FITC-T4 for binding to TTR,[3],1.3 µM
same,IC50,[3],23.3 µM
CCNc1nc(Cl)nc(NC(C)C)n1 [Atrazine],11 deoxycorticosterone mean fold change,"[1]; H295R, concentration 0.3 uM",1.225 fold change
same,17aOH progesterone mean fold change,"[1]; H295R, concentration 0.3 uM",1.062 fold change
same,17b E2 mean fold change,"[1]; H295R, concentration 0.3 uM",1.11 fold change
same,E1 mean fold change,"[1]; H295R, concentration 0.3 uM",0.9324 fold change
same,androstenedione mean fold change,"[1]; H295R, concentration 0.3 uM",1.124 fold change
same,corticosterone mean fold change,"[1]; H295R, concentration 0.3 uM",1.264 fold change
same,cortisol mean fold change,"[1]; H295R, concentration 0.3 uM",1.18 fold change
same,testosterone mean fold change,"[1]; H295R, concentration 0.3 uM",1.092 fold change
same,11 deoxycorticosterone mean fold change,"[1]; H295R, concentration 1 uM",1.279 fold change
same,17aOH progesterone mean fold change,"[1]; H295R, concentration 1 uM",1.128 fold change
same,17b E2 mean fold change,"[1]; H295R, concentration 1 uM",1.2477 fold change
same,E1 mean fold change,"[1]; H295R, concentration 1 uM",1.144 fold change
same,androstenedione mean fold change,"[1]; H295R, concentration 1 uM",1.188 fold change
same,corticosterone mean fold change,"[1]; H295R, concentration 1 uM",1.609 fold change
same,cortisol mean fold change,"[1]; H295R, concentration 1 uM",1.21 fold change
same,testosterone mean fold change,"[1]; H295R, concentration 1 uM",1.129 fold change
same,11 deoxycorticosterone mean fold change,"[1]; H295R, concentration 3 uM",1.291 fold change
same,17aOH progesterone mean fold change,"[1]; H295R, concentration 3 uM",1.151 fold change
same,17b E2 mean fold change,"[1]; H295R, concentration 3 uM",1.487 fold change
same,E1 mean fold change,"[1]; H295R, concentration 3 uM",1.415 fold change
same,androstenedione mean fold change,"[1]; H295R, concentration 3 uM",1.193 fold change
same,corticosterone mean fold change,"[1]; H295R, concentration 3 uM",1.535 fold change
same,cortisol mean fold change,"[1]; H295R, concentration 3 uM",1.258 fold change
same,testosterone mean fold change,"[1]; H295R, concentration 3 uM",1.198 fold change
same,11 deoxycorticosterone mean fold change,"[1]; H295R, concentration 10 uM",1.493 fold change
same,17aOH progesterone mean fold change,"[1]; H295R, concentration 10 uM",1.43 fold change
same,17b E2 mean fold change,"[1]; H295R, concentration 10 uM",2.183 fold change
same,E1 mean fold change,"[1]; H295R, concentration 10 uM",2.232 fold change
same,androstenedione mean fold change,"[1]; H295R, concentration 10 uM",1.47 fold change
same,corticosterone mean fold change,"[1]; H295R, concentration 10 uM",2.296 fold change
same,cortisol mean fold change,"[1]; H295R, concentration 10 uM",1.583 fold change
same,testosterone mean fold change,"[1]; H295R, concentration 10 uM",1.47 fold change
same,11 deoxycorticosterone mean fold change,"[1]; H295R, concentration 30 uM",1.712 fold change
same,17aOH progesterone mean fold change,"[1]; H295R, concentration 30 uM",1.877 fold change
same,17b E2 mean fold change,"[1]; H295R, concentration 30 uM",2.732 fold change
same,E1 mean fold change,"[1]; H295R, concentration 30 uM",3.048 fold change
same,androstenedione mean fold change,"[1]; H295R, concentration 30 uM",1.542 fold change
same,corticosterone mean fold change,"[1]; H295R, concentration 30 uM",2.489 fold change
same,cortisol mean fold change,"[1]; H295R, concentration 30 uM",1.7 fold change
same,testosterone mean fold change,"[1]; H295R, concentration 30 uM",1.645 fold change
same,11 deoxycorticosterone mean fold change,"[1]; H295R, concentration 100 uM",2.107 fold change
same,17aOH progesterone mean fold change,"[1]; H295R, concentration 100 uM",2.139 fold change
same,17b E2 mean fold change,"[1]; H295R, concentration 100 uM",2.968 fold change
same,E1 mean fold change,"[1]; H295R, concentration 100 uM",3.994 fold change
same,androstenedione mean fold change,"[1]; H295R, concentration 100 uM",1.612 fold change
same,corticosterone mean fold change,"[1]; H295R, concentration 100 uM",3.324 fold change
same,cortisol mean fold change,"[1]; H295R, concentration 100 uM",2.203 fold change
same,testosterone mean fold change,"[1]; H295R, concentration 100 uM",1.74 fold change
same,effect on steroid hormone levels compared with vehicle-treated controls,[1]; 48 h,"increased levels of progestogens, androgens, estrogens, and corticosteroids"
CC(C)Nc1nc(N)nc(Cl)n1 [Deethyl-atrazine],effect on steroid hormone levels compared with vehicle-treated controls,[1]; 48 h,"increased levels of progestogens, androgens, estrogens, and corticosteroids"
"O=C(O)C(F)(OC(F)(F)C(F)(F)C(F)(F)F)C(F)(F)F (stereo not drawn) [GenX, Hexafluoropropylene oxide dimer acid]",IC50,[2],30.3 µM
same,% FITCT4 bound to TTR,[3]; 0.1 uM,92.2482%
same,% FITCT4 bound to TTR,[3]; 0.3 uM,91.7718%
same,% FITCT4 bound to TTR,[3]; 1 uM,89.1133%
same,% FITCT4 bound to TTR,[3]; 3 uM,86.8896%
same,% FITCT4 bound to TTR,[3]; 10 uM,74.6529%
same,% FITCT4 bound to TTR,[3]; 30 uM,53.6966%
same,% FITCT4 bound to TTR,[3]; 100 uM,24.7329%
same,IC10 competing with FITC-T4 for binding to TTR,[3],1.9 µM
same,IC50,[3],31.9 µM
